# From PubChem BioAssay (NCI)
#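 Dose response: 5 concentrations. Exposure: 48 h. Format: 96-well plates. Endpoint: linear interpolation; highest concentration if not reached. GI50 = concentration required for 50% inhibition of growth. TGI is the concentration that stops growth completely.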
# Experiments:
# Test in all cases: NCI-60 cell line screen, 48 h
# 786-0 renal = system: 786-0 renal
# A498 renal = system: A498 renal
# ACHN renal = system: ACHN renal
# BT-549 breast = system: BT-549 breast
# CAKI-1 renal = system: CAKI-1 renal
# CCRF-CEM leukemia = system: CCRF-CEM leukemia
# COLO 205 colon = system: COLO 205 colon
# DU-145 prostate = system: DU-145 prostate
# EKVX NSCLC = system: EKVX NSCLC
# HCC-2998 colon = system: HCC-2998 colon
# HCT-116 colon = system: HCT-116 colon
# HCT-15 colon = system: HCT-15 colon
# HL-60(TB) leukemia = system: HL-60(TB) leukemia
# HOP-62 NSCLC = system: HOP-62 NSCLC
# HOP-92 NSCLC = system: HOP-92 NSCLC
# HS 578T breast = system: HS 578T breast
# HT29 colon = system: HT29 colon
# IGROV1 ovarian = system: IGROV1 ovarian
# K-562 leukemia = system: K-562 leukemia
# KM12 colon = system: KM12 colon
# LOX IMVI melanoma = system: LOX IMVI melanoma
# M14 melanoma = system: M14 melanoma
# MALME-3M melanoma = system: MALME-3M melanoma
# MCF7 breast = system: MCF7 breast
# MDA-MB-231 breast = system: MDA-MB-231 breast
# MDA-MB-435 = system: MDA-MB-435
# MDA-MB-468 breast = system: MDA-MB-468 breast
# MOLT-4 leukemia = system: MOLT-4 leukemia
# NCI-H226 lung = system: NCI-H226 lung
# NCI-H23 lung = system: NCI-H23 lung
# NCI-H460 lung = system: NCI-H460 lung
# NCI-H522 lung = system: NCI-H522 lung
# NCI/ADR-RES ovarian = system: NCI/ADR-RES ovarian
# OVCAR-3 ovarian = system: OVCAR-3 ovarian
# OVCAR-4 ovarian = system: OVCAR-4 ovarian
# OVCAR-5 ovarian = system: OVCAR-5 ovarian
# OVCAR-8 ovarian = system: OVCAR-8 ovarian
# PC-3 prostate = system: PC-3 prostate
# RPMI-8226 leukemia = system: RPMI-8226 leukemia
# RXF 393 renal = system: RXF 393 renal
# SF-268 CNS = system: SF-268 CNS
# SF-295 CNS = system: SF-295 CNS
# SF-539 CNS = system: SF-539 CNS
# SK-MEL-2 melanoma = system: SK-MEL-2 melanoma
# SK-MEL-28 melanoma = system: SK-MEL-28 melanoma
# SK-MEL-5 melanoma = system: SK-MEL-5 melanoma
# SK-OV-3 ovarian = system: SK-OV-3 ovarian
# SN12C renal = system: SN12C renal
# SNB-19 CNS = system: SNB-19 CNS
# SNB-75 CNS = system: SNB-75 CNS
# SR leukemia = system: SR leukemia
# T-47D breast = system: T-47D breast
# TK-10 renal = system: TK-10 renal
# U251 CNS = system: U251 CNS
# UACC-257 melanoma = system: UACC-257 melanoma
# UACC-62 melanoma = system: UACC-62 melanoma
# UO-31 renal = system: UO-31 renal
smiles,measurement,setting,value
Cn1cc(-c2cc3nc(-c4c[nH]c5ccccc45)cc(N)n3n2)c2cc(Cl)ccc21,GI50,786-0 renal,1.64 µM
same,TGI,786-0 renal,3.12 µM
same,GI50,A498 renal,3.16 µM
same,TGI,A498 renal,11.1 µM
same,GI50,ACHN renal,1.75 µM
same,TGI,ACHN renal,3.41 µM
same,GI50,BT-549 breast,12.9 µM
same,TGI,BT-549 breast,32.2 µM
same,GI50,CAKI-1 renal,1.66 µM
same,TGI,CAKI-1 renal,3.2 µM
same,GI50,CCRF-CEM leukemia,4.4 µM
same,TGI,CCRF-CEM leukemia,> 100 µM
same,GI50,COLO 205 colon,1.89 µM
same,TGI,COLO 205 colon,3.59 µM
same,GI50,DU-145 prostate,3.62 µM
same,TGI,DU-145 prostate,13.4 µM
same,GI50,EKVX NSCLC,2.12 µM
same,TGI,EKVX NSCLC,6.03 µM
same,GI50,HCC-2998 colon,1.87 µM
same,TGI,HCC-2998 colon,3.5 µM
same,GI50,HCT-116 colon,1.75 µM
same,TGI,HCT-116 colon,3.24 µM
same,GI50,HCT-15 colon,1.62 µM
same,TGI,HCT-15 colon,3.35 µM
same,GI50,HL-60(TB) leukemia,1.94 µM
same,TGI,HL-60(TB) leukemia,5.01 µM
same,GI50,HOP-62 NSCLC,2.12 µM
same,TGI,HOP-62 NSCLC,5.31 µM
same,GI50,HOP-92 NSCLC,1.99 µM
same,TGI,HOP-92 NSCLC,4.1 µM
same,GI50,HS 578T breast,2.38 µM
same,TGI,HS 578T breast,6.49 µM
same,GI50,HT29 colon,1.93 µM
same,TGI,HT29 colon,3.99 µM
same,GI50,IGROV1 ovarian,2.53 µM
same,TGI,IGROV1 ovarian,7.62 µM
same,GI50,K-562 leukemia,2.26 µM
same,TGI,K-562 leukemia,6.3 µM
same,GI50,KM12 colon,1.99 µM
same,TGI,KM12 colon,4.24 µM
same,GI50,LOX IMVI melanoma,1.71 µM
same,TGI,LOX IMVI melanoma,3.15 µM
same,GI50,M14 melanoma,1.77 µM
same,TGI,M14 melanoma,3.36 µM
same,GI50,MALME-3M melanoma,1.7 µM
same,TGI,MALME-3M melanoma,3.26 µM
same,GI50,MCF7 breast,1.66 µM
same,TGI,MCF7 breast,3.31 µM
same,GI50,MDA-MB-231 breast,2.31 µM
same,TGI,MDA-MB-231 breast,5.24 µM
same,GI50,MDA-MB-435,1.79 µM
same,TGI,MDA-MB-435,3.32 µM
same,GI50,MDA-MB-468 breast,1.62 µM
same,TGI,MDA-MB-468 breast,3.37 µM
same,GI50,MOLT-4 leukemia,2.71 µM
same,TGI,MOLT-4 leukemia,11.1 µM
same,GI50,NCI-H226 lung,16.9 µM
same,TGI,NCI-H226 lung,44 µM
same,GI50,NCI-H23 lung,2.26 µM
same,TGI,NCI-H23 lung,5.58 µM
same,GI50,NCI-H460 lung,2.36 µM
same,TGI,NCI-H460 lung,5.56 µM
same,GI50,NCI-H522 lung,1.75 µM
same,TGI,NCI-H522 lung,3.75 µM
same,GI50,NCI/ADR-RES ovarian,2.46 µM
same,TGI,NCI/ADR-RES ovarian,6.8 µM
same,GI50,OVCAR-3 ovarian,2.23 µM
same,TGI,OVCAR-3 ovarian,4.76 µM
same,GI50,OVCAR-4 ovarian,1.82 µM
same,TGI,OVCAR-4 ovarian,3.49 µM
same,GI50,OVCAR-5 ovarian,1.81 µM
same,TGI,OVCAR-5 ovarian,4.22 µM
same,GI50,OVCAR-8 ovarian,2.23 µM
same,TGI,OVCAR-8 ovarian,5.07 µM
same,GI50,PC-3 prostate,2.97 µM
same,TGI,PC-3 prostate,9.37 µM
same,GI50,RPMI-8226 leukemia,2.94 µM
same,TGI,RPMI-8226 leukemia,9.18 µM
same,GI50,RXF 393 renal,1.87 µM
same,TGI,RXF 393 renal,3.81 µM
same,GI50,SF-268 CNS,2.16 µM
same,TGI,SF-268 CNS,5.44 µM
same,GI50,SF-295 CNS,1.78 µM
same,TGI,SF-295 CNS,3.53 µM
same,GI50,SF-539 CNS,1.73 µM
same,TGI,SF-539 CNS,3.19 µM
same,GI50,SK-MEL-2 melanoma,2.11 µM
same,TGI,SK-MEL-2 melanoma,4.63 µM
same,GI50,SK-MEL-28 melanoma,1.7 µM
same,TGI,SK-MEL-28 melanoma,3.12 µM
same,GI50,SK-MEL-5 melanoma,1.98 µM
same,TGI,SK-MEL-5 melanoma,4.09 µM
same,GI50,SK-OV-3 ovarian,2.24 µM
same,TGI,SK-OV-3 ovarian,5.62 µM
same,GI50,SN12C renal,1.9 µM
same,TGI,SN12C renal,4.15 µM
same,GI50,SNB-19 CNS,3.29 µM
same,TGI,SNB-19 CNS,13.8 µM
same,GI50,SNB-75 CNS,1.52 µM
same,TGI,SNB-75 CNS,3.06 µM
same,GI50,SR leukemia,2.61 µM
same,TGI,SR leukemia,9.11 µM
same,GI50,T-47D breast,1.76 µM
same,TGI,T-47D breast,3.82 µM
same,GI50,TK-10 renal,2.03 µM
same,TGI,TK-10 renal,5.36 µM
same,GI50,U251 CNS,1.8 µM
same,TGI,U251 CNS,3.61 µM
same,GI50,UACC-257 melanoma,1.68 µM
same,TGI,UACC-257 melanoma,3.25 µM
same,GI50,UACC-62 melanoma,1.8 µM
same,TGI,UACC-62 melanoma,3.51 µM
same,GI50,UO-31 renal,1.72 µM
same,TGI,UO-31 renal,3.25 µM
